According to US9073918B2, “Pyrazolo[4,3-b]pyridine-7-amine inhibitors of ALK5” (Takeda Pharmaceutical Company Limited, priority 2010, dated 2015):
pIC50: −log10 of the molar value.

Legend:
cellular TGF-β R1 ALK5 = target: T1, cellular TGF-β R1 ALK5 (Homo sapiens, UniProt P36897); assay: Cellular inhibition of ALK5 (CellSensor SBE-bla HEK 293T beta-lactamase reporter); type: cell-based; conditions: cellular inhibition of ALK5, SBE-bla HEK 293T cells, TGFb-1 stimulated 5 hours; average where measured in multiple experiments
T1 construct: host or cells: CellSensor SBE-bla HEK 293T
T1 sequence (P36897 34-503): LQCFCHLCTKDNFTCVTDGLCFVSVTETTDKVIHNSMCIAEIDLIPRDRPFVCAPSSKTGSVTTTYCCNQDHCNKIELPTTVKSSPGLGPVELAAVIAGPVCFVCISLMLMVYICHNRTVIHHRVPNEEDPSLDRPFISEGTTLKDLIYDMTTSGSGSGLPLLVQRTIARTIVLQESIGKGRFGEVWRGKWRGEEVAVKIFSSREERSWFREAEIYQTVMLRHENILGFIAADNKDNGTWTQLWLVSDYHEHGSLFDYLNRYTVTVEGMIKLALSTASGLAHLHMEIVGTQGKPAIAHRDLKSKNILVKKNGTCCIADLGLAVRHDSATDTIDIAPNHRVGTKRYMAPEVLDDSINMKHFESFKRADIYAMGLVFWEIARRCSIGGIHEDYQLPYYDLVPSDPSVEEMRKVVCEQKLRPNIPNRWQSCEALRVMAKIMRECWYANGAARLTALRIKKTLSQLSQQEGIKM
Summary of the method: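 SBE-bla HEK 293T beta-lactamase reporter cells pre-incubated 1 h at 37 °C with 2.5-fold serially diluted compounds (0.5% DMSO), then stimulated 5 h with TGFb-1 (100 ng/mL stock).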

TGF-β R1 ALK5 = target: T2, TGF-β R1 ALK5 (Homo sapiens, UniProt P36897); assay: In vitro inhibition of ALK5 (LanthaScreen activity assay, TR-FRET); type: biochemical
T2 construct: purchased Invitrogen PV5837
T2 sequence (P36897 34-503): T1 sequence (P36897 34-503)

Row | pIC50 (cellular TGF-β R1 ALK5) | pIC50 (TGF-β R1 ALK5) | Structure (SMILES)
1 | 6.80 | 7.60 | Cc1ccc(F)c(-c2cc(Nc3ccnc4cnn([C@H]5CCOC5)c34)c(C)cn2)n1 [Example 141, (S)—N-(3′-fluoro-5,6′-dimethyl-2,2′-bipyridin-4-yl)-1-(tetrahydrofuran-3-yl)-1H-pyrazolo[4,3-b]pyridin-7-amine]
2 | 6.80 | 7.60 | Cc1cnc(-c2cc(F)ccc2F)cc1Nc1ccnc2cn(CCC(C)(C)O)nc12 [Example 142, 4-(7-(2-(2,5-difluorophenyl)-5-methylpyridin-4-ylamino)-2H-pyrazolo[4,3-b]pyridin-2-yl)-2-methylbutan-2-ol]
3 | 6.90 | 7.70 | Cc1cnc(-c2cc(F)ccc2F)cc1Nc1ccnc2cn(CC(C)O)nc12 (stereo not drawn) [Example 143, 1-(7-(2-(2,5-difluorophenyl)-5-methylpyridin-4-ylamino)-2H-pyrazolo[4,3-b]pyridin-2-yl)propan-2-ol]
4 | 7.70 | 8.60 | Cc1cnc(-c2cc(F)ccc2F)cc1Nc1ccnc2cnn(CC(C)O)c12 (stereo not drawn) [Example 144, 1-(7-(2-(2,5-difluorophenyl)-5-methylpyridin-4-ylamino)-1H-pyrazolo[4,3-b]pyridin-1-yl)propan-2-ol]
5 | 6.90 | 7.80 | CNC(=O)Cn1ncc2nccc(Nc3cc(-c4nc(C)ccc4F)ncc3C)c21 [Example 145, 2-(7-(3′-fluoro-5,6′-dimethyl-2,2′-bipyridin-4-ylamino)-1H-pyrazolo[4,3-b]pyridin-1-yl)-N-methylacetamide]
6 | 6.30 | 7.50 | CNC(=O)Cn1cc2nccc(Nc3cc(-c4nc(C)ccc4F)ncc3C)c2n1 [Example 146, 2-(7-(3′-fluoro-5,6′-dimethyl-2,2′-bipyridin-4-ylamino)-2H-pyrazolo[4,3-b]pyridin-2-yl)-N-methylacetamide]
7 | 6.70 | 7.50 | CNC(=O)Cn1cc2ncc(F)c(Nc3cc(-c4nc(C)ccc4F)ncc3C)c2n1 [Example 147, 2-(6-fluoro-7-(3′-fluoro-5,6′-dimethyl-2,2′-bipyridin-4-ylamino)-2H-pyrazolo[4,3-b]pyridin-2-yl)-N-methylacetamide]
8 | 6.00 | 6.70 | CNC(=O)Cn1ncc2ncc(F)c(Nc3cc(-c4nc(C)ccc4F)ncc3C)c21 [Example 148, 2-(6-fluoro-7-(3′-fluoro-5,6′-dimethyl-2,2′-bipyridin-4-ylamino)-1H-pyrazolo[4,3-b]pyridin-1-yl)-N-methylacetamide]
9 | 7.10 | 8.20 | Cc1ccc(F)c(-c2cc(Nc3ccnc4cn(C[C@H](C)O)nc34)c(C)cn2)n1 [Example 149, (S)-1-(7-(3′-fluoro-5,6′-dimethyl-2,2′-bipyridin-4-ylamino)-2H-pyrazolo[4,3-b]pyridin-2-yl)propan-2-ol]
10 | 6.80 | 8.10 | Cc1ccc(F)c(-c2cc(Nc3ccnc4cn(C[C@@H](C)O)nc34)c(C)cn2)n1 [Example 150, (R)-1-(7-(3′-fluoro-5,6′-dimethyl-2,2′-bipyridin-4-ylamino)-2H-pyrazolo[4,3-b]pyridin-2-yl)propan-2-ol]
11 | 7.20 | 8.20 | Cc1ccc(F)c(-c2cc(Nc3ccnc4cnn(C[C@@H](C)O)c34)c(C)cn2)n1 [Example 151, (R)-1-(7-(3′-fluoro-5,6′-dimethyl-2,2′-bipyridin-4-ylamino)-1H-pyrazolo[4,3-b]pyridin-1-yl)propan-2-ol]
12 | 7.00 | 8.10 | Cc1ccc(F)c(-c2cc(Nc3ccnc4cnn(C[C@H](C)O)c34)c(C)cn2)n1 [Example 152, (S)-1-(7-(3′-fluoro-5,6′-dimethyl-2,2′-bipyridin-4-ylamino)-1H-pyrazolo[4,3-b]pyridin-1-yl)propan-2-ol]
13 | 7.10 | 8.10 | CCNC(=O)Cn1ncc2nccc(Nc3cc(-c4nc(C)ccc4F)ncc3C)c21 [Example 153, N-ethyl-2-(7-(3′-fluoro-5,6′-dimethyl-2,2′-bipyridin-4-ylamino)-1H-pyrazolo[4,3-b]pyridin-1-yl)acetamide]
14 | 5.80 | 7.50 | CCNC(=O)Cn1cc2nccc(Nc3cc(-c4nc(C)ccc4F)ncc3C)c2n1 [Example 154, N-ethyl-2-(7-(3′-fluoro-5,6′-dimethyl-2,2′-bipyridin-4-ylamino)-2H-pyrazolo[4,3-b]pyridin-2-yl)acetamide]
15 | 6.10 | 7.60 | CCNC(=O)Cn1ncc2nccc(Nc3cc(-c4cc(F)ccc4F)ncc3C)c21 [Example 155, 2-(7-(2-(2,5-difluorophenyl)-5-methylpyridin-4-ylamino)-1H-pyrazolo[4,3-b]pyridin-1-yl)-N-ethylacetamide]

Further lines, the compound ahead of its results:

Row | Structure (SMILES) | pIC50 (cellular TGF-β R1 ALK5) | pIC50 (TGF-β R1 ALK5)
16 | CCn1cc2nccc(Nc3cc(-c4nc(C)ccc4F)ncc3C)c2n1 [Example 126, 2-ethyl-N-(3′-fluoro-5,6′-dimethyl-2,2′-bipyridin-4-yl)-2H-pyrazolo[4,3-b]pyridin-7-amine] | 7.80 | 8.00
17 | CCn1ncc2nccc(Nc3ccnc(-c4nc(C)ccc4F)c3)c21 [Example 127, 1-ethyl-N-(3′-fluoro-6′-methyl-2,2′-bipyridin-4-yl)-1H-pyrazolo[4,3-b]pyridin-7-amine] | 7.50 | 8.10
18 | Cc1cnc(-c2cc(Cl)ccc2F)cc1Nc1ccnc2cn(C)nc12 [Example 128, N-(2-(5-chloro-2-fluorophenyl)-5-methylpyridin-4-yl)-2-methyl-2H-pyrazolo[4,3-b]pyridin-7-amine] | 7.60 | 8.20
19 | Cc1ccc(F)c(-c2cc(Nc3ccnc4cn(CCF)nc34)c(C)cn2)n1 [Example 129, N-(3′-fluoro-5,6′-dimethyl-2,2′-bipyridin-4-yl)-2-(2-fluoroethyl)-2H-pyrazolo[4,3-b]pyridin-7-amine] | 7.80 | 8.20
20 | Cc1ccc(F)c(-c2cc(Nc3ccnc4cnn(CCF)c34)c(C)cn2)n1 [Example 130, N-(3′-fluoro-5,6′-dimethyl-2,2′-bipyridin-4-yl)-1-(2-fluoroethyl)-1H-pyrazolo[4,3-b]pyridin-7-amine] | 7.70 | 8.40
21 | Cc1ccc(F)c(-c2cc(Nc3c(F)cnc4cn(C)nc34)c(C)cn2)n1 [Example 131, 6-fluoro-N-(3′-fluoro-5,6′-dimethyl-2,2′-bipyridin-4-yl)-2-methyl-2H-pyrazolo[4,3-b]pyridin-7-amine] | 8.00 | 8.50
22 | Cc1ccc(F)c(-c2cc(Nc3c(F)cnc4cnn(C)c34)c(C)cn2)n1 [Example 132, 6-fluoro-N-(3′-fluoro-5,6′-dimethyl-2,2′-bipyridin-4-yl)-1-methyl-1H-pyrazolo[4,3-b]pyridin-7-amine] | 6.90 | 7.20
23 | Cc1ccc(F)c(-c2cc(Nc3ccnc4cnn(C5CC5)c34)ccn2)n1 [Example 133, 1-cyclopropyl-N-(3′-fluoro-6′-methyl-2,2′-bipyridin-4-yl)-1H-pyrazolo[4,3-b]pyridin-7-amine] | 7.50 | 8.30
24 | CCn1ncc2nccc(Nc3cc(-c4nc(C)ccc4F)ncc3C)c21 [Example 134, 1-ethyl-N-(3′-fluoro-5,6′-dimethyl-2,2′-bipyridin-4-yl)-1H-pyrazolo[4,3-b]pyridin-7-amine] | 7.30 | 8.70
25 | Cc1ccc(F)c(-c2cc(Nc3ccnc4cnn(CCC(C)(C)O)c34)ccn2)n1 [Example 135, 4-(7-(3′-fluoro-6′-methyl-2,2′-bipyridin-4-ylamino)-1H-pyrazolo[4,3-b]pyridin-1-yl)-2-methylbutan-2-ol] | 7.30 | 7.80
26 | Cc1ccc(F)c(-c2cc(Nc3ccnc4cn([C@@H]5CCOC5)nc34)c(C)cn2)n1 [Example 136, (R)—N-(3′-fluoro-5,6′-dimethyl-2,2′-bipyridin-4-yl)-2-(tetrahydrofuran-3-yl)-2H-pyrazolo[4,3-b]pyridin-7-amine] | 7.10 | 8.20
27 | Cc1ccc(F)c(-c2cc(Nc3ccnc4cnn([C@@H]5CCOC5)c34)c(C)cn2)n1 [Example 137, (R)—N-(3′-fluoro-5,6′-dimethyl-2,2′-bipyridin-4-yl)-1-(tetrahydrofuran-3-yl)-1H-pyrazolo[4,3-b]pyridin-7-amine] | 7.10 | 7.70
28 | CCn1cc2ncc(F)c(Nc3cc(-c4nc(C)ccc4F)ncc3C)c2n1 [Example 138, 2-ethyl-6-fluoro-N-(3′-fluoro-5,6′-dimethyl-2,2′-bipyridin-4-yl)-2H-pyrazolo[4,3-b]pyridin-7-amine] | 7.80 | 8.10
29 | CCn1ncc2ncc(F)c(Nc3cc(-c4nc(C)ccc4F)ncc3C)c21 [Example 139, 1-ethyl-6-fluoro-N-(3′-fluoro-5,6′-dimethyl-2,2′-bipyridin-4-yl)-1H-pyrazolo[4,3-b]pyridin-7-amine] | 6.90 | 7.60
30 | Cc1ccc(F)c(-c2cc(Nc3ccnc4cn([C@H]5CCOC5)nc34)c(C)cn2)n1 [Example 140, (S)—N-(3′-fluoro-5,6′-dimethyl-2,2′-bipyridin-4-yl)-2-(tetrahydrofuran-3-yl)-2H-pyrazolo[4,3-b]pyridin-7-amine] | 7.30 | 8.10
